# Source: patent publication US20190183922A1, “NOVEL ACTIVE IMMUNOMODULATORY AGENT AND COMPOSITION CONTAINING SAME” (UNIVERSITE CLERMONT AUVERGNE, priority 2016, published 2019)
# Several values for one entry are separate records, joined by “and”; a condition that tells them apart may be missing. Identical values can stand only once.
# Test system: co-culture of human dermal endothelial cells (HMVECs) and normal human dermal fibroblasts (NHDFs)
# Assay: Formation of pseudotubes in an HMVEC+NHDF co-culture (anti-vWF immunolabelling, image analysis)
# Assay type: cell-based
# Procedure: The effects of the high-molecular-weight sulphated polysaccharide (HMWP) on the formation of pseudotubes was studied in a co-culture of human dermal endothelial cells (HMVECs) and normal human dermal fibroblasts (NHDFs), in basal condition or stimulated by VEGF (analysis by immunolabelling in situ).
# The HMVEC and NHDF cells in co-culture were seeded in 96-well plates and cultured for 24 hours in culture medium.
# The culture medium used is as follows: • EBM-2 (Endothelial cell basal medium 2) supplemented with 5% foetal calf serum (FCS), rhEGF, rhFGF, R3 IGF-1, hydrocortisone, vitamin C, gentamycin, • DMEM supplemented with 2 mM L-glutamine, 50 U/ml penicillin, 50 μg/ml streptomycin and 10% FCS.
# The medium was then replaced with test medium containing or not containing (control) the compound to be tested and/or the VEGF inductor reference tested at 100 ng/ml; the compound was tested simultaneously in basal and stimulated condition (in the absence and in the presence of VEGF).
# The test medium used was as follows: • EBM-2 (Endothelial cell basal medium 2) supplemented with rhEGF, rhFGF, R3 IGF-1, hydrocortisone, vitamin C, gentamycin, • DMEM supplemented with 2 mM L-glutamine, 50 U/ml penicillin, 50 μg/ml streptomycin and 1% FCS.
# The cells were then incubated for 7 days, repeating the treatment after incubating for 72 hours. All the experimental conditions were produced in triplicate (n=3).
# After incubation, the culture medium was removed and the cells were rinsed, fixed and permeabilized. The cells were then labelled with anti-VWF (Von Willebrand Factor) primary antibody. […] Simultaneously, the cell nuclei were coloured with Hoechst 33258 (bis-benzimide).
# The formation of the pseudotubes was observed using a NIKON Diaphot 300 microscope (×4 objective lens). The digital images (1 photo per well) were then recorded with a NIKON DS-Ri1 camera and the NIS-Elements 4.13.04 software.
# The labelling was quantified by measuring the entire surface of the pseudotubes using ImageJ software.
# The formation of pseudotubes in the co-culture of endothelial cells (HMVECs) and dermal fibroblasts (NHDFs) after incubating for 7 days was measured by image analysis following immunolabelling with an anti-vWF antibody, the vWF being specifically expressed by the HMVEC cells.
# The stimulation percentage is calculated according to the following formula: […]
# The inhibition percentage is calculated according to the following formula: […]
# [1] = VEGF inductor reference 100 ng/ml, 7 days
substance,measurement,setting,value
VEGF,% Control,[1],1759%
same,% Stimulation,[1],1659%
same,Surface of the pseudotubes,"VEGF inductor reference 100 ng/ml, 7 days, individual wells",2.15 mm^2 and 2.52 mm^2 and 1.84 mm^2
same,Average Surface,"VEGF inductor reference 100 ng/ml, 7 days, n=3",2.17 mm^2
same,Organization of the endothelial cells into pseudotubes,reference VEGF 100 ng/ml,clearly led to an organization of the endothelial cells into pseudotubes
